In patent publication EP1380291A1, “PDE IV inhibitors for treating multiple sclerosis” (Schering Aktiengesellschaft, priority 1994, dated 1995):
pEC50: −log10 of the molar value.

Assays:
[1] = tested on: encephalitogenic CD4+ MBP-specific rat TCL (L1402); test: TNF/LT production by an encephalitogenic MBP-specific rat T-cell line, cytotoxicity bioassay; assay type: cell-based
Description: To assess the ability of rolipram alone or in various combinations as described to modify autoimmune processes, we investigated its influence on TNF production in vitro by MBP-specific T-cell lines from MS patients and Lewis rats. MBP is a major candidate antigen in MS, and T-cell-mediated immunity is of crucial importance in its pathogenesis. Similar to EAE, MBP-specific T-cells in humans are often cytotoxic, of Th1 type secreting interferon (IFN)-gamma and TNF/LT, and recognize epitopes that are also encephalitogenic in EAE.
Similar results were found using an encephalitogenic CD4+ MBP-specific rat TCL (L1402). […] Previous investigations had shown that inhibition of cAMP PDE by rolipram is stereospecific.
TNF and LT may both be produced by autoactive T-cells. CD4+ cells have been reported to be the major source of TFN in autoimmune insulitis of NOD mice. The cytokine bioassay for TNF/LT detection employed here is sensitive to TNF and LT, but is 200 times more sensitive to the former.

[2] = tested on: mouse and rat forebrain tissue; details: in vitro and in vivo binding with 3H-rolipram; previous investigations; cited from earlier work
[3] = tested on: EAE after active immunization (aEAE); test: EAE after active immunization (aEAE) in Lewis rats; assay type: in vivo; details: drug given from the day of active immunization until day 11
Protocol: (§1) The results of our in vivo findings prompted us to perform treatment experiments in EAE after active immunization (aEAE) and adoptive cell transfer (tEAE) in Lewis rats. […] In clinically manifest EAE, treatment was started within 6 hours of the onset of symptoms. […] In tEAE similar effects were observed. […] Treatment after onset of symptoms also lead to a marked reduction in maximum severity (treated group: MMS 0.7 ± 0.10, n = 5; vehicle treated matched controls 2.45 ± 0.56, n = 5, p 0.01).
In order to distinguish further between a long-term prophylactic or a temporary suppressive effect, animals received the drug from the day of active immunization until day 11.
Histological analysis was performed on selected animals with aEAE. […] In a study on EAE, induced by myelin oligodendrocyte glycoprotein (MOG)-specific T-cells, the lack of neurological signs was ascribed to a decrease of macrophages and parenchymal inflammation, whereas perivascular inflammation and the synthesis of TNF, IFN-gamma, and interleukin-6 was clearly present. In our system, however, the timely onset of paralysis and the morphologically similar appearance of infiltrates in some of the treated animals argues against such a phenomenon. […]

[4] = tested on: Experimental Allergic Encephalomyelitis (EAE); test: Treatment of active (chronic) EAE with Rolipram in a marmoset; assay type: in vivo, Callithrix jacchus (common marmoset); details: escalating doses of Rolipram in DMSO
[5] = tested on: Experimental Allergic Encephalomyelitis (EAE); test: Prevention of EAE by Rolipram treatment in marmosets immunized with human brain white matter homogenate; assay type: in vivo, Callithrix jacchus (common marmoset); details: treatment removed on day 60 following immunization; two marmosets
[6] = tested on: EAE after adoptive cell transfer (tEAE); test: EAE after adoptive cell transfer (tEAE) in Lewis rats; assay type: in vivo; details: n = 5
Protocol: as §1

COc1ccc(C2CNC(=O)C2)cc1OC1CCCC1 (single isomer, unassigned; (-)) [(-)-rolipram]
times more effective than the (+)-enantiomer (inhibition of TNF/LT production) [1]: 55 times | times higher affinity than the (+)-enantiomers [2]: 15-30 times

COc1ccc(C2CNC(=O)C2)cc1OC1CCCC1 (stereo not drawn) [Rolipram, 4-[(3-cyclopentyloxy)-4-methoxyphenyl]-2-pyrrolidinone]
delay of aEAE [3]: 3.5 days | day of MRI improvement following initiating Rolipram treatment [4]: 14 days | day of marked improvement after initiating treatment [4]: 10 days | day on which clinical signs of EAE began following withdrawal of Rolipram [5]: 17 days | mean maximum score (MMN) ([6]; prophylactic treatment, p < 0.01 versus controls): 0.3 ± 0.11 | MMS (maximum severity) ([6]; treatment after onset of symptoms): 0.7 ± 0.10

COc1ccc(C2CNC(=O)C2)cc1OC1CCCC1 (single isomer, unassigned; (+)) [(+)-rolipram]
pEC50 ([1]; inhibition of TNF/LT production, given alone): 6.55
